According to article PMC3757248, “Antiestrogen-binding site ligands induce autophagy in myeloma cells that proceeds through alteration of cholesterol metabolism” (Oncotarget, 2013):

Key:
RPMI 8226 and LP-1 cells [1] = assay: Intracellular free sterol, TG and SM contents; format: cell-based, human; settings: 5 µM OHT, 20 µM PBPE or 5 µM RU 58668 for three days
Description: (§1) The organic layer was reduced to dryness under a flux of argon and the residue was resuspended in ethanol. Sterols were analyzed by liquid chromatography and gas-liquid chromatography as described before. Neutral lipids and sphingomyelin analyses were done according to previously published procedures.

LP-1 cells [2] = assay: Electron microscopy for MLBs, AVs and UVs; format: cell-based, human; settings: 48 h, 10 μM drug (PBPE 40 μM)
U266 = tested on: U266; parameters: method as in earlier work; settings: cited from earlier work
OPM-2 = tested on: OPM-2; parameters: method as in earlier work; settings: cited from earlier work
LP-1 cells [3] = assay: Sterols accumulated in cells, HPLC and GC/MS; format: cell-based, human; settings: LP1, 48 h incubation
Description: as §1

RPMI 8226 cells [4] = assay: Sterols accumulated in cells, HPLC and GC/MS; format: cell-based, human; settings: RPMI 8226, 48 h incubation
Description: as §1

MM tumors = tested on: MM tumors; parameters: method as in PMID 20033476, PMID 16753295; settings: xenografted mice bearing MM tumors; cited from earlier work
LP-1 = tested on: LP-1; parameters: method as in earlier work; settings: cited from earlier work
HMCLs = assay: Free sterol accumulation in HMCLs; format: cell-based, human
Description: as §1

ChEH = ChEH (Homo sapiens, UniProt Q15125+Q9UBM7); assay: ChEH activity in HMCLs (TLC); format: cell-based; parameters: endogenous in cells; host or cells: RPMI 8226 and LP-1 human multiple myeloma cell lines; settings: OHT, Tam, RU 58668 10 μM, PBPE 40 μM
Excerpt: Cells were then pelleted and extracted with chloroform/methanol (2/1). The organic layer was reduced to dryness under a flux of argon and the residue was resuspended in EtOH. Samples were applied to thin layer chromatography (TLC) plates and developed using ethyl acetate as previously described. The radioactive metabolites were visualized by autoradiography using Kodak Biomax MS films.

RPMI 8226 and LP-1 cells [5] = assay: Degradation of long-lived proteins; format: cell-based, human; settings: both cell lines, 10 μM OHT, 40 μM PBPE
Description: The degradation of long-lived proteins was measured as described previously. Briefly, HMCLs were incubated for 24 h at 37°C with 0.2 μCi/ml of L-[[14]C]valine in complete medium. Cells were then washed resuspended in medium with no nutrients but supplemented with 10 mM valine. After the first h of incubation, the chase medium was replaced by complete medium and the incubation continued for 5 h. […] Radiolabeled proteins present in the chase medium as well as in cells were precipitated with 10% trichloroacetic acid (v/v) at 4°C. Radioactivity was measured by scintillation counting. The rate of protein degradation was calculated from the ratio of radioactivity in the medium to that of precipitated cell fraction.

NCI-H929 = tested on: NCI-H929; parameters: method as in earlier work; settings: cited from earlier work
RPMI 8226 = tested on: RPMI 8226; parameters: method as in earlier work; settings: cited from earlier work
RPMI 8226 cells [6] = assay: Electron microscopy for MLBs, AVs and UVs; format: cell-based, human; settings: 48 h, 10 μM drug (PBPE 40 μM)
AEBS = AEBS (Homo sapiens, UniProt Q15125+Q9UBM7); assay: Binding to the AEBS in HMCLs; parameters: endogenous in cells; host or cells: RPMI 8226 and LP-1 human multiple myeloma cell lines
LP-1 cells [7] = assay: Presence of 5,6-EC in cells by GC/MS; format: cell-based, human; settings: 48 h, 10 μM drug (PBPE 40 μM)
Description: as §1

RPMI 8226 cells [8] = assay: Presence of 5,6-EC in cells by GC/MS; format: cell-based, human; settings: 48 h, 10 μM drug (PBPE 40 μM)
Description: as §1

Karpas 620 = tested on: Karpas 620; parameters: method as in earlier work; settings: cited from earlier work
[9] = RPMI 8226, presence of 500 μM Vit E

Chain of ChEH (Q15125 whole entry): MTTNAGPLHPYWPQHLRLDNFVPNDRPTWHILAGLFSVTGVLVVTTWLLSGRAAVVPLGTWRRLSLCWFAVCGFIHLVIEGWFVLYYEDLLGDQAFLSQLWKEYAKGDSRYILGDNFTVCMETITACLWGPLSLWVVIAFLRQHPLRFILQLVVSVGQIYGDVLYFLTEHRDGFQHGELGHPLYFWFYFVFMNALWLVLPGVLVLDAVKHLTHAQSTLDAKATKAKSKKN
Chain of ChEH (Q9UBM7 whole entry): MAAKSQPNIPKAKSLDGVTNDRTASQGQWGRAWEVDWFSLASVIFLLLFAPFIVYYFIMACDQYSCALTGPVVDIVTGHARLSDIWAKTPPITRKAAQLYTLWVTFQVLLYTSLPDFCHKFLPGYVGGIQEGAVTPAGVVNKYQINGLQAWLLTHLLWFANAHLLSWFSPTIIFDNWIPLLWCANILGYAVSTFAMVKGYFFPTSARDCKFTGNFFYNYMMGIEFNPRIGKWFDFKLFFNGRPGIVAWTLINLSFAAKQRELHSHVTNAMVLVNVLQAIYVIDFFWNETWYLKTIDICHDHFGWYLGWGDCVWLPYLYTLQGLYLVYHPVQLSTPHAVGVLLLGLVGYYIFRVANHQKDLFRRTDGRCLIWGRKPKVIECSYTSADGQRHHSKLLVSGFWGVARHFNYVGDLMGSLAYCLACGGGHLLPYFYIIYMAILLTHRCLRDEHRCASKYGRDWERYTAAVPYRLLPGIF
Chain of AEBS (Q15125 whole entry): as the sequence (Q15125 whole entry) above
Chain of AEBS (Q9UBM7 whole entry): as the sequence (Q9UBM7 whole entry) above

ChEH activity, conversion of 5,6-EC into CT by TLC (ChEH): ChEH activity was inhibited | affinity for the AEBS (AEBS): high affinity
Structure (SMILES): CC/C(=C(\c1ccc(O)cc1)c1ccc(OCCN(C)C)cc1)c1ccccc1 [OHT]
intracellular free sterol, triacylglycerol (TG) and sphingomyelin (SM) contents (RPMI 8226 and LP-1 cells [1]): increases | AV (LP-1 cells [2]; LP-1, absence of Vit E): + + (The sign + means that 80 % cells were positive and contained at least 5 vesicles) | MLB (LP-1 cells [2]; LP-1, absence of Vit E): + + (The sign + means that 80 % cells were positive and contained at least 5 vesicles) | UV (LP-1 cells [2]; LP-1, absence of Vit E): + (The sign + means that 80 % cells were positive and contained at least 5 vesicles) | AV (LP-1 cells [2]; LP-1, presence of 500 μM Vit E): + + (The sign + means that 80 % cells were positive and contained at least 5 vesicles) | MLB (LP-1 cells [2]; LP-1, presence of 500 μM Vit E): + + (The sign + means that 80 % cells were positive and contained at least 5 vesicles) | UV (LP-1 cells [2]; LP-1, presence of 500 μM Vit E): − (otherwise they were considered as negative (-)) | SERM and SERDs effects on MM cell lines (U266): G1-arrest and apoptosis | SERM and SERDs effects on MM cell lines (OPM-2): No response | Desmosterol (LP-1 cells [3]): 44.4 percent by the weight of total sterol | Zymostenol (LP-1 cells [3]): 1.9 percent by the weight of total sterol | Zymostenol (RPMI 8226 cells [4]): 1.8 percent by the weight of total sterol | tumor growth (MM tumors): block tumor growth | SERM and SERDs effects on MM cell lines (LP-1): G1-arrest and apoptosis | free sterol accumulated (HMCLs): accumulation of desmosterol | rate of long-lived protein degradation (RPMI 8226 and LP-1 cells [5]): stimulated | SERM and SERDs effects on MM cell lines (NCI-H929): G1-arrest and apoptosis | SERM and SERDs effects on MM cell lines (RPMI 8226): G1-arrest and apoptosis | AV (RPMI 8226 cells [6]; RPMI 8226, absence of Vit E): + + (The sign + means that 80 % cells were positive and contained at least 5 vesicles) | MLB (RPMI 8226 cells [6]; RPMI 8226, absence of Vit E): + + (The sign + means that 80 % cells were positive and contained at least 5 vesicles) | UV (RPMI 8226 cells [6]; RPMI 8226, absence of Vit E): + (The sign + means that 80 % cells were positive and contained at least 5 vesicles) | AV (RPMI 8226 cells [6]; [9]): + + (The sign + means that 80 % cells were positive and contained at least 5 vesicles) | MLB (RPMI 8226 cells [6]; [9]): + + (The sign + means that 80 % cells were positive and contained at least 5 vesicles) | UV (RPMI 8226 cells [6]; [9]): − (otherwise they were considered as negative (-)) | 5,6-EC (LP-1 cells [7]; LP-1, absence of Vit E): + | 5,6-EC (LP-1 cells [7]; LP-1, presence of 500 μM Vit E): − | 5,6-EC (RPMI 8226 cells [8]; RPMI 8226, absence of Vit E): + | 5,6-EC (RPMI 8226 cells [8]; [9]): − | SERM and SERDs effects on MM cell lines (Karpas 620): No response
